Data: the NIST ThermoML archive (doi:10.1021/je800077r)

Assays:
[1] = xn = mol fraction of the nth substance listed; details: 101 kPa, Liquid; for speed of sound: Sing-around technique in a fixed-path interferometer; for mass density: Vibrating tube method
[2] = refractive index (Na D-line) (dimensionless); xn = mol fraction of the nth substance listed; details: 101 kPa, Liquid, Standard Abbe refractometry

CCCCCCn1cc[n+](C)c1.F[P-](F)(F)(F)(F)F [1-hexyl-3-methylimidazolium hexafluorophosphate] + CCOC(C)=O
Details	mass density, 293.15 K [kg/m3]	mass density, 298.15 K [kg/m3]	mass density, 303.15 K [kg/m3]	refractive index, 293.15 K	refractive index, 298.15 K	refractive index, 303.15 K	speed of sound, 293.15 K [m/s]	speed of sound, 298.15 K [m/s]	speed of sound, 303.15 K [m/s]
[1], x1 = 0.0506	952.6	946.8	941	–	–	–	1185	1163	1142
[1], x1 = 0.104	998.7	993.2	987.6	–	–	–	1210	1189	1169
[1], x1 = 0.1978	1063.8	1058.6	1053.4	–	–	–	1252	1233	1215
[1], x1 = 0.2924	1114.6	1109.8	1104.9	–	–	–	1288	1271	1254
[1], x1 = 0.4549	1179.7	1175.2	1170.5	–	–	–	1335	1320	1305
[1], x1 = 0.4974	1193.3	1188.9	1184.2	–	–	–	1346	1331	1317
[1], x1 = 0.5904	1219.5	1215.2	1210.7	–	–	–	1366	1352	1338
[1], x1 = 0.7015	1245.8	1241.5	1237.2	–	–	–	1387	1374	1361
[1], x1 = 0.7926	1263.8	1259.8	1255.6	–	–	–	1403	1390	1378
[1], x1 = 0.8941	1281.6	1277.6	1273.8	–	–	–	1420	1407	1395
[1], x1 = 0.9459	1289.8	1285.8	1282	–	–	–	1429	1415	1403
[1], x1 = 1	1297.9	1293.7	1289.6	–	–	–	1438	1424	1411
[2], x1 = 0.0506	–	–	–	1.38064	1.37838	1.37606	–	–	–
[2], x1 = 0.104	–	–	–	1.3874	1.38537	1.38312	–	–	–
[2], x1 = 0.1978	–	–	–	1.39645	1.39415	1.39194	–	–	–
[2], x1 = 0.2924	–	–	–	1.402	1.40007	1.39821	–	–	–
[2], x1 = 0.4549	–	–	–	1.40845	1.4069	1.40523	–	–	–
[2], x1 = 0.4974	–	–	–	1.40969	1.40821	1.40664	–	–	–
[2], x1 = 0.5904	–	–	–	1.41237	1.41083	1.40893	–	–	–
[2], x1 = 0.7015	–	–	–	1.41438	1.41296	1.4115	–	–	–
[2], x1 = 0.7926	–	–	–	1.41592	1.41446	1.41307	–	–	–
[2], x1 = 0.8941	–	–	–	1.41731	1.41594	1.41454	–	–	–
[2], x1 = 0.9459	–	–	–	1.41797	1.41662	1.41526	–	–	–
[2], x1 = 1	–	–	–	1.41923	1.41787	1.41643	–	–	–

CCOC(C)=O [ethyl acetate] + CCCCCC
Details	mass density, 293.15 K [kg/m3]	mass density, 298.15 K [kg/m3]	mass density, 303.15 K [kg/m3]	refractive index, 293.15 K	refractive index, 298.15 K	refractive index, 303.15 K	speed of sound, 293.15 K [m/s]	speed of sound, 298.15 K [m/s]	speed of sound, 303.15 K [m/s]
[1], x2 = 0	900.5	894.4	888.2	–	–	–	1162	1141	1111
[1], x2 = 0.0469	884.3	878.2	872.2	–	–	–	1152	1129	1099
[1], x2 = 0.0969	868	862	855.9	–	–	–	1141	1119	1089
[1], x2 = 0.1898	838.9	833.1	827.3	–	–	–	1125	1103	1074
[1], x2 = 0.2962	808.6	803	797.3	–	–	–	1111	1089	1061
[1], x2 = 0.3907	783.5	778	772.4	–	–	–	1101	1079	1053
[1], x2 = 0.5028	756	750.7	745.3	–	–	–	1093	1071	1046
[1], x2 = 0.598	734.5	729.3	724.1	–	–	–	1090	1067	1042
[1], x2 = 0.6995	713.1	708.1	703.1	–	–	–	1088	1066	1041
[1], x2 = 0.803	693.3	688.4	683.5	–	–	–	1089	1067	1043
[1], x2 = 0.9005	675.8	671.1	666.4	–	–	–	1093	1071	1047
[1], x2 = 0.9514	667.3	662.7	658.1	–	–	–	1096	1074	1051
[2], x2 = 0	–	–	–	1.37241	1.36977	1.36712	–	–	–
[2], x2 = 0.0469	–	–	–	1.37193	1.36926	1.3666	–	–	–
[2], x2 = 0.0969	–	–	–	1.37157	1.3689	1.36622	–	–	–
[2], x2 = 0.1898	–	–	–	1.37105	1.36832	1.36559	–	–	–
[2], x2 = 0.2962	–	–	–	1.3706	1.36785	1.36513	–	–	–
[2], x2 = 0.3907	–	–	–	1.37053	1.36776	1.365	–	–	–
[2], x2 = 0.5028	–	–	–	1.37066	1.36789	1.36511	–	–	–
[2], x2 = 0.598	–	–	–	1.37101	1.36823	1.36547	–	–	–
[2], x2 = 0.6995	–	–	–	1.3718	1.36896	1.36611	–	–	–
[2], x2 = 0.803	–	–	–	1.37266	1.3698	1.36689	–	–	–
[2], x2 = 0.9005	–	–	–	1.37381	1.37096	1.36803	–	–	–
[2], x2 = 0.9514	–	–	–	1.3744	1.37157	1.36866	–	–	–
